Source: US8933142B2, “Low-extractable thioxanthones” (Lamberti Spa, priority 2010, dated 2015)

assay: Through-cure (thumb twist test), as photoinitiator; conditions: 3% thioxanthone derivative, 3% Esacure A 198, cyan ink, 3 μm on coated cardboard, Hg lamp 120 W/cm
Protocol: (§1) Evaluation of “Through-Cure”
(§2) The “through cure” test evaluates the degree of cross-linking of the deeper layers of the formulate (film) spread on the substrate. The film is considered completely crosslinked when it is not detached from the substrate or damaged by the “thumb twist test”. The test is carried out at various speeds of exposure to UV source. The higher the speed the higher the reactivity of the system.
(§3) The products described in the examples were tested both as photoinitiators and sensitizers. For the evaluation as photoinitiator the following formulation is employed (by weight): 3% of derivative of thioxanthone of formula I, 3% of Esacure A 198, up to 100% with cyan ink for off-set printing. For the evaluation as sensitizers the formulation is composed as follows (by weight): 0.5% of derivative of thioxanthone of formula I, 3% of Esacure A 198, 3% of Esacure 1001, up to 100% with cyan ink for off-set printing.
(§4) The resulting mixtures are milled with a three cylinders mill (laboratory scale) and applied on a coated cardboard with a thickness of 3 μm by means of film coater (RK Print Coater Instrument Ltd), then exposed at different speed to a mercury vapors lamp at high pressure 120 W/cm.
(§5) ITX, in the same amounts, is chosen as reference.

SMILES | Through-cure (photoinitiator)
CCCCCOC(=O)c1ccc2c(=O)c3cc(C)ccc3sc2c1 [Example 2, pentyl 7-methyl-9-oxo-9H-thioxanthene-3-carboxylate] | 5 m/min
COC(=O)c1ccc2c(=O)c3cc(C)ccc3sc2c1 [Example 3, methyl 7-methyl-9-oxo-9H-thioxanthene-3-carboxylate] | Insoluble
C=CCOC(=O)c1ccc2c(=O)c3cc(C)ccc3sc2c1 [Example 4, allyl 7-methyl-9-oxo-9H-thioxanthene-3-carboxylate] | 70 m/min
CC(C)c1ccc2sc3ccccc3c(=O)c2c1 [ITX, isopropyl thioxanthone, reference compound] | 95 m/min

assay: FT-IR degree of polymerization in a pigmented photopolymerizable composition (as photoinitiator); conditions: 3% photoinitiator, 3% Esacure A198, cyan ink, 3 μm film, Hg/Xe lamp 120 W/cm; 1 sec
Protocol: Evaluation of the Derivatives of Thioxanthone in a Pigmented Photopolymerizable Composition by Means of FT-IR.
Pigmented photopolymerizable compositions are prepared by mixing 3% by weight of both the photoinitiators of formula I (Examples 1-6) and the coinitiator Esacure A198 (bis-N,N-[4-dimethyl aminobenzoyl)oxyethylen-1-yl]-methylamine), commercialized by Lamberti S.p.A, and up to 100% by weight of a cyan ink for off-set inking.
Isopropyl thioxanthone (ITX) is chosen as reference photoinitiator.
The photopolymerizable compositions are milled with a three cylinders mill (laboratory scale) in order to homogenize the mix and applied with a thickness of 3 μm on a soft polyethylene substrate by means of a film coater (RK Print Coater Instrument Ltd).
The sample, placed in the sample lodgment of a FT-IR (FT-IR 430-Jasco), is exposed to a Mercury/Xenon Vapors light source at high pressure to 120 W/cm (L8868 Light-cure, Hamamatsu) set at a distance of 8 cm from the sample and at an angle of 30°.
IR spectra are acquired at constant time intervals during the photopolymerization and the reduction over time of the peak area at 1408 cm^−1 assigned to the acrylic double bond was determined by IR software (Perkin Elmer, Spectrum ONE v. 2.0). This allows to quantify the degree of polymerization over the time and therefore the efficiency of the photoinitiator.

SMILES | % degree of polymerization after 1 sec
CCCCCOC(=O)c1ccc2c(=O)c3cc(C)ccc3sc2c1 [Example 2, pentyl 7-methyl-9-oxo-9H-thioxanthene-3-carboxylate] | 2.5%
COC(=O)c1ccc2c(=O)c3cc(C)ccc3sc2c1 [Example 3, methyl 7-methyl-9-oxo-9H-thioxanthene-3-carboxylate] | Insoluble
C=CCOC(=O)c1ccc2c(=O)c3cc(C)ccc3sc2c1 [Example 4, allyl 7-methyl-9-oxo-9H-thioxanthene-3-carboxylate] | 5.9%
CC(C)c1ccc2sc3ccccc3c(=O)c2c1 [ITX, isopropyl thioxanthone, reference compound] | 10.0%

same assay, conditions: 3% photoinitiator, 3% Esacure A198, cyan ink, 3 μm film, Hg/Xe lamp 120 W/cm; 2 sec

SMILES | % degree of polymerization after 2 sec
CCCCCOC(=O)c1ccc2c(=O)c3cc(C)ccc3sc2c1 [Example 2, pentyl 7-methyl-9-oxo-9H-thioxanthene-3-carboxylate] | 3.1%
COC(=O)c1ccc2c(=O)c3cc(C)ccc3sc2c1 [Example 3, methyl 7-methyl-9-oxo-9H-thioxanthene-3-carboxylate] | Insoluble
C=CCOC(=O)c1ccc2c(=O)c3cc(C)ccc3sc2c1 [Example 4, allyl 7-methyl-9-oxo-9H-thioxanthene-3-carboxylate] | 18.3%
CC(C)c1ccc2sc3ccccc3c(=O)c2c1 [ITX, isopropyl thioxanthone, reference compound] | 18.9%

same assay, conditions: 3% photoinitiator, 3% Esacure A198, cyan ink, 3 μm film, Hg/Xe lamp 120 W/cm; 5 sec

SMILES | % degree of polymerization after 5 sec
CCCCCOC(=O)c1ccc2c(=O)c3cc(C)ccc3sc2c1 [Example 2, pentyl 7-methyl-9-oxo-9H-thioxanthene-3-carboxylate] | 7.2%
COC(=O)c1ccc2c(=O)c3cc(C)ccc3sc2c1 [Example 3, methyl 7-methyl-9-oxo-9H-thioxanthene-3-carboxylate] | Insoluble
C=CCOC(=O)c1ccc2c(=O)c3cc(C)ccc3sc2c1 [Example 4, allyl 7-methyl-9-oxo-9H-thioxanthene-3-carboxylate] | 35.3%
CC(C)c1ccc2sc3ccccc3c(=O)c2c1 [ITX, isopropyl thioxanthone, reference compound] | 33.0%

assay: FT-IR degree of polymerization in a pigmented composition (as sensitizer of Esacure 1001); conditions: 0.5% sensitizer, 3% Esacure 1001, 3% Esacure A 198, cyan ink, 3 μm film; 1 sec
Protocol: The compounds described in the examples were evaluated also as sensitizer in a pigmented composition as described below.
Pigmented photopolymerizable compositions are prepared by mixing 3% by weight of both Esacure 1001 and coinitiator Esacure A 198 (both commercialized by Lamberti S.p.A.), 0.5% by weight of derivatives of thioxanthone of the Examples listed in Table 1 and up to 100% by weight of a cyan ink for off-set inking. ITX is used as reference sensitizer.
The photopolymerizable compositions are milled with a three cylinders mill (laboratory scale) in order to homogenize the mix and applied with a thickness of 3 μm on a soft polyethylene substrate by means of film coater (RK Print Coater Instrument Ltd).
The sample, placed in the sample lodgment of a FT-IR (FT-IR 430-Jasco), is exposed to a Mercury/Xenon Vapors light source at high pressure to 120 W/cm (L8868 Light-cure, Hamamatsu) set at a distance of 8 cm from the sample with an angle of 30°.
IR spectra were acquired at constant time during the photopolymerization and the reduction over the time of the area of the peak at 1408 cm^−1 assigned to the acrylic double bond is determined with the help of a IR software (Perkin Elmer, Spectrum ONE v. 2.0).
This allows to quantify the degree of polymerization over time and therefore the efficiency of the photoinitiator.

SMILES | % degree of polymerization after 1 sec
CCCCCOC(=O)c1ccc2c(=O)c3cc(C)ccc3sc2c1 [Example 2, pentyl 7-methyl-9-oxo-9H-thioxanthene-3-carboxylate] | Not reactive
COC(=O)c1ccc2c(=O)c3cc(C)ccc3sc2c1 [Example 3, methyl 7-methyl-9-oxo-9H-thioxanthene-3-carboxylate] | Insoluble
C=CCOC(=O)c1ccc2c(=O)c3cc(C)ccc3sc2c1 [Example 4, allyl 7-methyl-9-oxo-9H-thioxanthene-3-carboxylate] | 20.6%
CC(C)c1ccc2sc3ccccc3c(=O)c2c1 [ITX, isopropyl thioxanthone, reference compound] | 19.6%

same assay, conditions: 0.5% sensitizer, 3% Esacure 1001, 3% Esacure A 198, cyan ink, 3 μm film; 2 sec

SMILES | % degree of polymerization after 2 sec
CCCCCOC(=O)c1ccc2c(=O)c3cc(C)ccc3sc2c1 [Example 2, pentyl 7-methyl-9-oxo-9H-thioxanthene-3-carboxylate] | Not reactive
COC(=O)c1ccc2c(=O)c3cc(C)ccc3sc2c1 [Example 3, methyl 7-methyl-9-oxo-9H-thioxanthene-3-carboxylate] | Insoluble
C=CCOC(=O)c1ccc2c(=O)c3cc(C)ccc3sc2c1 [Example 4, allyl 7-methyl-9-oxo-9H-thioxanthene-3-carboxylate] | 33.2%
CC(C)c1ccc2sc3ccccc3c(=O)c2c1 [ITX, isopropyl thioxanthone, reference compound] | 31.4%

same assay, conditions: 0.5% sensitizer, 3% Esacure 1001, 3% Esacure A 198, cyan ink, 3 μm film; 5 sec

SMILES | % degree of polymerization after 5 sec
CCCCCOC(=O)c1ccc2c(=O)c3cc(C)ccc3sc2c1 [Example 2, pentyl 7-methyl-9-oxo-9H-thioxanthene-3-carboxylate] | Not reactive
COC(=O)c1ccc2c(=O)c3cc(C)ccc3sc2c1 [Example 3, methyl 7-methyl-9-oxo-9H-thioxanthene-3-carboxylate] | Insoluble
C=CCOC(=O)c1ccc2c(=O)c3cc(C)ccc3sc2c1 [Example 4, allyl 7-methyl-9-oxo-9H-thioxanthene-3-carboxylate] | 43.2%
CC(C)c1ccc2sc3ccccc3c(=O)c2c1 [ITX, isopropyl thioxanthone, reference compound] | 40.9%

assay: Formulability through solubility in methylene chloride; conditions: room temperature, stirring
Protocol: 10 g of the thioxanthone derivatives under investigation are weighed and suspended in the same amount of solvent; the mixture is maintained under stirring at room temperature.
After 2 min the clearness of the solution is evaluated: if the sample is not dissolved further aliquots of solvent are added, keeping the mixture under stirring for two min after each addition until complete solubilization.

Solubility | SMILES
33% | CCCCCOC(=O)c1ccc2c(=O)c3cc(C)ccc3sc2c1 [Example 2, pentyl 7-methyl-9-oxo-9H-thioxanthene-3-carboxylate]
insoluble | COC(=O)c1ccc2c(=O)c3cc(C)ccc3sc2c1 [Example 3, methyl 7-methyl-9-oxo-9H-thioxanthene-3-carboxylate]
5% | C=CCOC(=O)c1ccc2c(=O)c3cc(C)ccc3sc2c1 [Example 4, allyl 7-methyl-9-oxo-9H-thioxanthene-3-carboxylate]
5% | Cc1ccc2sc3cc(C(=O)N4CCN(C)CC4)ccc3c(=O)c2c1 [Example 6, 4-methyl-piperazinyl 7-methyl-9-oxo-9H-thioxanthene-3-carboxamide]

assay: Through-cure (thumb twist test), as sensitizer; conditions: 0.5% thioxanthone derivative, 3% Esacure A 198, 3% Esacure 1001, cyan ink, 3 μm on coated cardboard, Hg lamp 120 W/cm
Protocol: as §1, §2, §3, §4, §5

SMILES | Through-cure (sensitizer)
CCCCCOC(=O)c1ccc2c(=O)c3cc(C)ccc3sc2c1 [Example 2, pentyl 7-methyl-9-oxo-9H-thioxanthene-3-carboxylate] | Not reactive
COC(=O)c1ccc2c(=O)c3cc(C)ccc3sc2c1 [Example 3, methyl 7-methyl-9-oxo-9H-thioxanthene-3-carboxylate] | Insoluble
C=CCOC(=O)c1ccc2c(=O)c3cc(C)ccc3sc2c1 [Example 4, allyl 7-methyl-9-oxo-9H-thioxanthene-3-carboxylate] | 60 m/min
CC(C)c1ccc2sc3ccccc3c(=O)c2c1 [ITX, isopropyl thioxanthone, reference compound] | 60 m/min
